The values that follow come from patent US20140148493A1, “Agricultural and Horticultural Insecticide Composition and Method for Using the Same” (NIHON NOHYAKU CO., LTD., priority 2011, published 2014).

Common to all, as to assay type: in vivo
One test deals with Plutella xylostella. Description: Field test of insecticidal effect on Plutella xylostella (foliar application, Chinese kale). The settings on record: flubendiamide 11.3 and/or tolfenpyrad 60 g a.i./ha; for Control effect (%) 4DAT5 / Number of larvae per plant 4DAT5: 4 days after the 5th treatment; for Number of larvae per plant 4DAT5 / Number of larvae per plant 4DAT6: 4-day intervals, Chinese kale field; for Control effect (%) 4DAT6 / Number of larvae per plant 4DAT6: 4 days after the 6th treatment. The protocol: (§1) In an experimental Chinese kale (Brassica oleracea var. acephala) field (sized 4 m×5 m and planted with 800 plants per plot), foliar application was conducted with a water-diluted agrochemical solution (an amount equivalent to 750 L/ha) containing a predetermined dose of a flubendiamide 20% water-dispersible granule and/or a predetermined dose of a tolfenpyrad 15% emulsifiable concentrate at 4-day intervals, 8 times in total. In plots of Plutella xylostella or Spodoptera litura, 20 plants per plot were chosen at random, the number of surviving larvae was measured before the agrochemical treatment, at 4 days after the 5th agrochemical treatment and at 4 days after the 6th agrochemical treatment. With reference to the number of larvae before the agrochemical treatment, the control effect was calculated according to the formula shown below. In addition, the expected value for the control effect of the mixed use was calculated according to Colby's equation shown below. […] As for plots of Spodoptera exigua, the calculation was performed based on the measurements at 4 days after the 7th agrochemical treatment and at 4 days after the 8th agrochemical treatment.
(§2) Control effect=100−{(Ta×Cb)/(Tb×Ca)}×100
(§3) Ta=the number of larvae after the agrochemical treatment in a treatment plot
(§4) Tb=the number of larvae before the agrochemical treatment in a treatment plot
(§5) Ca=the number of larvae after the agrochemical treatment in a non-treatment plot
(§6) Cb=the number of larvae before the agrochemical treatment in a non-treatment plot
(§7) E(expected value)=(X+Y)−(X−Y/100)
(§8) X=the control effect of flubendiamide alone
(§9) Y=the control effect of tolfenpyrad alone
(§10) In each table, 4DAT5, 4DAT6, 4DAT7 and 4DAT8 are as defined below, and the a. i. stands for active ingredient.
(§11) 4DAT5: the measurement at 4 days after the 5th agrochemical treatment
(§12) 4DAT6 the measurement at 4 days after the 6th agrochemical treatment

In the next test the test system is Spodoptera exigua. Kind of test: Field test of insecticidal effect on Spodoptera exigua (foliar application, Chinese kale). The settings on record: flubendiamide 11.3 and/or tolfenpyrad 60 g a.i./ha; for Control effect (%) 4DAT7 / Number of larvae per plant 4DAT7: 4 days after the 7th treatment; for Number of larvae per plant 4DAT7 / Number of larvae per plant 4DAT8: 4-day intervals, Chinese kale field; for Control effect (%) 4DAT8 / Number of larvae per plant 4DAT8: 4 days after the 8th treatment. The protocol: as §1, §2, §3, §4, §5, §6, §7, §8, §9, §10
4DAT7 the measurement at 4 days after the 7th agrochemical treatment
4DAT8 the measurement at 4 days after the 8th agrochemical treatment

The next test has as its system Spodoptera litura. Kind of test: Field test of insecticidal effect on Spodoptera litura (foliar application, Chinese kale). The settings on record: flubendiamide 11.3 and/or tolfenpyrad 60 g a.i./ha; for Control effect (%) 4DAT5 / Number of larvae per plant 4DAT5: 4 days after the 5th treatment; for Number of larvae per plant 4DAT5 / Number of larvae per plant 4DAT6: 4-day intervals, Chinese kale field; for Control effect (%) 4DAT6 / Number of larvae per plant 4DAT6: 4 days after the 6th treatment. The method, then: as §1, §2, §3, §4, §5, §6, §7, §8, §9, §10, §11, §12

In the case of `Cc1cc(C(F)(C(F)(F)F)C(F)(F)F)ccc1NC(=O)c1cccc(I)c1C(=O)NC(C)(C)CS(C)(=O)=O` [Flubendiamide, 3-iodo-N′-(2-mesyl-1,1-dimethylethyl)-N-{4-[1,2,2,2-tetrafluoro-1-(trifluoromethyl)ethyl]-o-tolyl}phthalamide], in the test with Plutella xylostella, the “Control effect (%) 4DAT5” value is recorded as 53.5%, the “Number of larvae per plant 4DAT5” value stood at 0.24, the “Control effect (%) 4DAT6” value is given as 70.0% and the “Number of larvae per plant 4DAT6” value was found to be 0.13. In the test with Spodoptera exigua, the “Control effect (%) 4DAT7” value turned out to be 37.6%, the “Number of larvae per plant 4DAT7” value came to 0.03, the “Control effect (%) 4DAT8” value turned out to be 62.2% and the “Number of larvae per plant 4DAT8” value amounted to 0.04. Besides, in the test with Spodoptera litura, the “Control effect (%) 4DAT5” value is reported as 3.9%, the “Number of larvae per plant 4DAT5” value is recorded as 0.43, the “Control effect (%) 4DAT6” value was 37.8% and the “Number of larvae per plant 4DAT6” value is recorded as 0.31.

As to `CCc1nn(C)c(C(=O)NCc2ccc(Oc3ccc(C)cc3)cc2)c1Cl` [Tolfenpyrad, 4-chloro-3-ethyl-1-methyl-N-[4-(p-tolyloxy)benzyl]pyrazole-5-carboxamide], in the test on Plutella xylostella, the “Control effect (%) 4DAT5” value is listed as 29.4%, the “Number of larvae per plant 4DAT5” value came out at 0.38, the “Control effect (%) 4DAT6” value amounted to 58.0% and the “Number of larvae per plant 4DAT6” value is listed as 0.19. In the test on Spodoptera exigua, the “Control effect (%) 4DAT7” value is recorded as 0%, the “Number of larvae per plant 4DAT7” value came to 0.06, the “Control effect (%) 4DAT8” value turned out to be 0% and the “Number of larvae per plant 4DAT8” value was determined as 0.13. For the same molecule, in the test on Spodoptera litura, the “Control effect (%) 4DAT5” value stood at 0%, the “Number of larvae per plant 4DAT5” value amounted to 0.25, the “Control effect (%) 4DAT6” value came to 0% and the “Number of larvae per plant 4DAT6” value is 0.53.
